We go through two compounds from patent US7217827B2, “Halogen-containing aromatic compound” (Nippon Shokubai Co., Ltd., priority 2001, dated 2007).

A short description of the data set: Solubility to dimethylacetoamide at 25° C., solution then left standing for a night. As to conditions: for solubility to dimethylacetoamide: at 25° C.; for precipitation from the dimethylacetoamide solution on standing: solution left standing for a night.

As for `O=C1OC(=O)c2c(F)c(Oc3c(Cl)c(Cl)c(Oc4c(F)c(F)c5c(c4F)C(=O)OC5=O)c(Cl)c3Cl)c(F)c(F)c21` [Example 1, 1,4-bis(3,4-dicarboxytrifluorophenoxy)tetrachlorobenzene dianhydride], the solubility to dimethylacetoamide was 22 wt. % and the “precipitation from the dimethylacetoamide solution on standing” value is given as “precipitations were not found”.
For `Nc1c(F)c(N)c(F)c(Cl)c1F` [Example III-1, 5-chloro-2,4,6-trifluoro-m-phenylenediamine] the same measures were 68 wt. % and “precipitations were not found”.
